# Measurements: PubChem BioAssay AID1506 (NMMLSC, 2009)
# The source made the active and inactive calls. No rule for the calls is given here.
# Tested on: S. aureus strains, lipase production inhibition
# Test: quorum-sensing-driven lipase output in S. aureus strains – NM300, NM400, MRSA3757, S. aureus quorum sensing inhibitors (AID 1506)
# Details: for inhibition: stronger effect = higher value
# [1] = lipase inhibition, MRSA3757, at 12 µM
# [2] = lipase inhibition, strain NM400, at 12 µM
outcome (at 12 µM),inhibition [1],inhibition [2],inhibition (at 6 µM),"inhibition (lipase inhibition, strain NM300, at 6 µM)",inhibition (at 30 µM),"inhibition (lipase inhibition, strain NM300, at 30 µM)",Structure (SMILES)
inactive; agr3 active,0%,84%,–,–,–,–,CC1CCCN(C(C(=O)Nc2ccc3c(c2)OCO3)c2ccccc2)C1 (stereo not given)
–,–,–,80%,95%,–,–,CCc1oc2ccccc2c1C(=O)c1cc(Br)c(O)c(Br)c1
–,–,–,–,–,80%,90%,Cc1c(Cl)cccc1Nc1ccccc1C(=O)O
inactive; agr3 active,0%,68%,–,–,–,–,CC1CCCN(C(C(=O)Nc2ccc3c(c2)OCCO3)c2ccccc2)C1 (stereo not given)
